Assay results reported in patent US12559504B2, “Benzotriazole derivative” (UBE CORPORATION, priority 2019, dated 2026).

How the values were obtained:
NQO1 [1] = test: NQO1 enzyme induction test (in vitro) in Hepa1c1c7 cells; format: cell-based; conditions: Mus musculus, Hepa-1c1c7, 48 h, concentration to elevate the NQO1 activity by 1.5 times, about 48 hours, read-out: EC150
How it was run: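 Mouse Hepa1c1c7 cells treated about 48 h with compound (0.1% DMSO final), then lysed. NQO1 activity read as MTT reduction at 540 nm with menadione substrate, 5 min at room temperature, and corrected for cell number by CellTiter-Glo. EC150 is the concentration raising NQO1 activity 1.5-fold.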

NQO1 [2] = test: NQO1 expression induction test in mouse kidney (single administration); format: in vivo; conditions: Mus musculus, po, 6 h, BALB/c mouse kidney, 6 hours after administration, ratio to control group
How it was run: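 Female BALB/c mice received a single oral dose of compound in 0.5% methylcellulose, with untreated mice as controls. Six hours later, left-kidney NQO1 mRNA was measured by SYBR real-time RT-PCR normalised to GAPDH. Induction was expressed as the ratio of mean treated to mean control expression.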

[3] = Metabolism test using human liver microsome fractions; format: in vitro ADME; conditions: human liver microsomes, test compound 10 μmol/L, NADPH and UDP-glucuronic acid, 37° C.
How it was run: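 Human or monkey liver microsomes (1 mg protein) with NADPH-regenerating system plus UDP-glucuronic acid/UGT mix, 37 °C; compound at 10 μmol/L final. Samples at 0–30 min quenched in acetonitrile, UV-HPLC; elimination rate (pmol/min/mg-P) from linear slope of residual amount over time.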

[4] = target: T1, GST fusion human Keap1 (amino acid residue: 325-624) protein (Homo sapiens, UniProt Q14145); test: Keap1-Nrf2 binding inhibition test (fluorescence polarization); conditions: compound concentration of 100 nM; read-out: inhibition rate
T1 construct: GST fusion human Keap1 (amino acid residue: 325-624) protein; purchased Protein tech Ag0779
T1 sequence (Q14145 325-624): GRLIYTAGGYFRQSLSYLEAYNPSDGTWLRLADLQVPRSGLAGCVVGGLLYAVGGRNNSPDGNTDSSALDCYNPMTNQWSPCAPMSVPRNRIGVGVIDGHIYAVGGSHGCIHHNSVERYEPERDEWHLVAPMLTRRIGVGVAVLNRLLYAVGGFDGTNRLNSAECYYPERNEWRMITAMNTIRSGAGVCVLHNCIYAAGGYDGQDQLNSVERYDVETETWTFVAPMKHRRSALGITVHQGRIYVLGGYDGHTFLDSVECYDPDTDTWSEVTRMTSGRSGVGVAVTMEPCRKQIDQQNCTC
How it was run: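 Fluorescence polarization with FITC-labelled Nrf2 peptide (FITC-Ahx-LDEETGEFL-NH2) and GST-human Keap1 (325-624) in 20 mM Tris pH 7.5, 150 mM NaCl, 0.05% Tween 20, 5 mM DTT, BSA; 30 min at room temperature, ex 482/em 530 nm. Percent inhibition at 100 nM compound, Keap1-free wells = 100%.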

Structure (SMILES)	inhibition at 0.1 µM [4] [%]	EC (1.5-fold NQO1 activity) (NQO1 [1]) [µM]	fold induction at 30 mg/kg (NQO1 [2])	Human metabolic rate [3]	fold induction at 20 mg/kg (NQO1 [2])
CC[C@@H]1CN(Cc2cc(C(c3ccc4c(nnn4C)c3C)C(C)(C)C(=O)O)ccc2C)Cc2cc3cccnc3cc2O1 (stereo partly drawn) [Example 11-(b), 3-(1,4-dimethyl-1H-benzo[d][1,2,3]triazol-5-yl)-3-(3-(((R)-2-ethyl-2,3-dihydro-[1,4]oxazepino[6,7-g]quinolin-4(5H)-yl)methyl)-4-methylphenyl)-2,2-dimethylpropanoic Acid]	≥ 50	0.0005 to 0.005	> 6	D (200≤metabolic rate<250 pmol/min/me protein)	–
CC[C@@H]1CN(Cc2cc(C(c3ccc4c(nnn4C)c3C)C(C)(C)C(=O)O)ccc2C)Cc2cc3ccccc3cc2O1 (stereo partly drawn) [Example 8-(b), 3-(1,4-dimethyl-1H-benzo[d][1,2,3]triazol-5-yl)-3-(3-(((R)-2-ethyl-2,3-dihydronaphtho[2,3-f][1,4]oxazepin-4(5H)-yl)methyl)-4-methylphenyl)-2,2-dimethylpropanoic Acid]	≥ 50	0.0005 to 0.005	3 to 6	A (metabolic rate<100 pmol/min/mg protein)	–
CC[C@@H]1CN(Cc2cc(C(c3ccc4c(nnn4C)c3C)C(C)(C)C(=O)O)ccc2C)Cc2c(cnc3ccccc23)O1 (stereo partly drawn) [Example 19-(b), 3-(1,4-dimethyl-1H-benzo[d][1,2,3]triazol-5-yl)-3-(3-(((R)-4-ethyl-3,4-dihydro-[1,4]oxazepino[7,6-c]quinolin-2(1H)-yl)methyl)-4-methylphenyl)-2,2-dimethylpropanoic Acid]	≥ 50	0.0005 to 0.005	≤ 3	E (metabolic rate≥250 pmol/min/mg protein)	–
CC[C@@H]1CN(Cc2cc(C(c3ccc4c(nnn4C)c3C)C(C)(C)C(=O)O)ccc2C)Cc2cnc3ccccc3c2O1 (stereo partly drawn) [Example 26-(b), 3-(1,4-dimethyl-1H-benzo[d][1,2,3]triazol-5-yl)-3-(3-(((R)-2-ethyl-2,3-dihydro-[1,4]oxazepino[6,7-c]quinolin-4(5H)-yl)methyl)-4-methylphenyl)-2,2-dimethylpropanoic Acid]	≥ 50	0.0005 to 0.005	> 6	E (metabolic rate≥250 pmol/min/mg protein)	–

Now from value to molecule, other results behind:

inhibition at 0.1 µM [4] [%]	Structure (SMILES)	EC (1.5-fold NQO1 activity) (NQO1 [1]) [µM]	fold induction at 30 mg/kg (NQO1 [2])	Human metabolic rate [3]	fold induction at 20 mg/kg (NQO1 [2])
≥ 50	CC[C@@H]1CN(Cc2cc(C(c3ccc4c(nnn4C)c3C)C(C)(C)C(=O)O)ccc2C)Cc2cc3nccc(C)c3cc2O1 (stereo partly drawn) [Example 71-(b), 3-(1,4-dimethyl-1H-benzo[d][1,2,3]triazol-5-yl)-3-(3-(((R)-2-ethyl-10-methyl-2,3-dihydro-[1,4]oxazepino[7,6-g]quinolin-4 (5H)-yl)methyl)-4-methylphenyl)-2,2-dimethylpropanoic Acid]	0.0005 to 0.005	–	D (200≤metabolic rate<250 pmol/min/me protein)	> 6
≥ 50	CC[C@@H]1CN(Cc2cc(C(c3ccc4c(nnn4C)c3C)C(C)(C)C(=O)O)ccc2OC)Cc2cc3ncccc3cc2O1 (stereo partly drawn) [Example 81-(b), 3-(1,4-dimethyl-1H-benzo[d][1,2,3]triazol-5-yl)-3-(3-(((R)-2-ethyl-2,3-dihydro-[1,4]oxazepino[7,6-g]quinolin-4 (5H)-yl)methyl)-4-methoxyphenyl)-2,2-dimethylpropanoic Acid]	0.005 to 0.05	–	A (metabolic rate<100 pmol/min/mg protein)	3 to 6
≥ 50	CC[C@@H]1CN(Cc2cc(C(c3ccc4c(nnn4C)c3C)C(C)(C)C(=O)O)ccc2C)Cc2cc(F)c3ccccc3c2O1 (stereo partly drawn) [Example 49-(b), 3-(1,4-dimethyl-1H-benzo[d](1,2, 3)triazol-5-yl)-3-(3-(((R)-2-ethyl-7-fluoro-2,3-dihydronaphtho[2,1-f][1,4]oxazepin-4 (5H)-yl)methyl)-4-methylphenyl)-2,2-dimethylpropanoic Acid]	0.0005 to 0.005	> 6	B (100≤metabolic rate<150 pmol/min/mg protein)	–
